Experimental data as given in ChEMBL document CHEMBL5649169 (ChemMedChem, 2018).

Tests used:
[1] = molecular target: Tyrosine-protein kinase ABL2 (Homo sapiens) (UniProt P42684)
[2] = molecular target: Double-stranded RNA-specific adenosine deaminase (Homo sapiens) (UniProt P55265)
[3] = molecular target: Dolichyl pyrophosphate Glc1Man9GlcNAc2 alpha-1,3-glucosyltransferase (Homo sapiens) (UniProt Q9BVK2)
[4] = molecular target: ATP synthase F(1) complex subunit beta, mitochondrial (Homo sapiens) (UniProt P06576)
[5] = molecular target: Calcium/calmodulin-dependent protein kinase type IV (Homo sapiens) (UniProt Q16566)
[6] = molecular target: Serine/threonine-protein kinase MRCK alpha (Homo sapiens) (UniProt Q5VT25)
[7] = molecular target: Cell division cycle 5-like protein (Homo sapiens) (UniProt Q99459)
[8] = molecular target: Cyclin-dependent kinase 12 (Homo sapiens) (UniProt Q9NYV4)
[9] = molecular target: MICOS complex subunit MIC19 (Homo sapiens) (UniProt Q9NX63)
[10] = molecular target: Carboxymethylenebutenolidase homolog (Homo sapiens) (UniProt Q96DG6)
[11] = molecular target: Conserved oligomeric Golgi complex subunit 8 (Homo sapiens) (UniProt Q96MW5)
[12] = molecular target: Deoxycytidine kinase (Homo sapiens) (UniProt P27707)
[13] = molecular target: Dynein light chain 2, cytoplasmic (Homo sapiens) (UniProt Q96FJ2)
[14] = molecular target: Fanconi anemia group D2 protein (Homo sapiens) (UniProt Q9BXW9)
[15] = molecular target: Rab GDP dissociation inhibitor beta (Homo sapiens) (UniProt P50395)
[16] = molecular target: Heat shock protein beta-1 (Homo sapiens) (UniProt P04792)
[17] = molecular target: Leucine-rich PPR motif-containing protein, mitochondrial (Homo sapiens) (UniProt P42704)
[18] = molecular target: Mitogen-activated protein kinase 10 (Homo sapiens) (UniProt P53779)
[19] = molecular target: Malate dehydrogenase, mitochondrial (Homo sapiens) (UniProt P40926)
[20] = molecular target: Small ribosomal subunit protein uS7m (Homo sapiens) (UniProt Q9Y2R9)
[21] = molecular target: Nuclear pore complex protein Nup155 (Homo sapiens) (UniProt O75694)
[22] = molecular target: Nuclear pore complex protein Nup205 (Homo sapiens) (UniProt Q92621)
[23] = molecular target: Proliferation-associated protein 2G4 (Homo sapiens) (UniProt Q9UQ80)
[24] = molecular target: Phosphatidylinositol transfer protein beta isoform (Homo sapiens) (UniProt P48739)
[25] = molecular target: Serine/threonine-protein kinase PLK4 (Homo sapiens) (UniProt O00444)
[26] = molecular target: Serine/threonine-protein phosphatase 2A 55 kDa regulatory subunit B alpha isoform (Homo sapiens) (UniProt P63151)
[27] = molecular target: 5'-AMP-activated protein kinase subunit gamma-2 (Homo sapiens) (UniProt Q9UGJ0)
[28] = molecular target: 26S proteasome non-ATPase regulatory subunit 2 (Homo sapiens) (UniProt Q13200)
[29] = molecular target: Rab-like protein 3 (Homo sapiens) (UniProt Q5HYI8)
[30] = molecular target: UV excision repair protein RAD23 homolog B (Homo sapiens) (UniProt P54727)
[31] = molecular target: Large ribosomal subunit protein uL11 (Homo sapiens) (UniProt P30050)
[32] = molecular target: Small ribosomal subunit protein uS10 (Homo sapiens) (UniProt P60866)
[33] = molecular target: Small ribosomal subunit protein uS4 (Homo sapiens) (UniProt P46781)
[34] = molecular target: Metal cation symporter ZIP14 (Homo sapiens) (UniProt Q15043)
[35] = molecular target: Spectrin alpha chain, non-erythrocytic 1 (Homo sapiens) (UniProt Q13813)
[36] = molecular target: Surfeit locus protein 4 (Homo sapiens) (UniProt O15260)
[37] = molecular target: Tyrosine-protein kinase Tec (Homo sapiens) (UniProt P42680)
[38] = molecular target: THO complex subunit 2 (Homo sapiens) (UniProt Q8NI27)
[39] = molecular target: Non-receptor tyrosine-protein kinase TNK1 (Homo sapiens) (UniProt Q13470)
[40] = molecular target: Triosephosphate isomerase (Homo sapiens) (UniProt P60174)
[41] = molecular target: Tripeptidyl-peptidase 1 (Homo sapiens) (UniProt O14773)
[42] = molecular target: Translocator protein (Homo sapiens) (UniProt P30536)
[43] = molecular target: TELO2-interacting protein 1 homolog (Homo sapiens) (UniProt O43156)
[44] = molecular target: Ubiquitin-associated protein 2 (Homo sapiens) (UniProt Q5T6F2)
[45] = molecular target: Ubiquitin carboxyl-terminal hydrolase 7 (Homo sapiens) (UniProt Q93009)
Note: assay method not described here.

Chain of Dynein light chain 2, cytoplasmic (Homo sapiens) (Q96FJ2 whole entry, looked up): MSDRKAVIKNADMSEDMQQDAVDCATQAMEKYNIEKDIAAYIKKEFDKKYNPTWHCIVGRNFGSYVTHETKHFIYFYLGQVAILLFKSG
Chain of Proliferation-associated protein 2G4 (Homo sapiens) (Q9UQ80 whole entry, canonical isoform): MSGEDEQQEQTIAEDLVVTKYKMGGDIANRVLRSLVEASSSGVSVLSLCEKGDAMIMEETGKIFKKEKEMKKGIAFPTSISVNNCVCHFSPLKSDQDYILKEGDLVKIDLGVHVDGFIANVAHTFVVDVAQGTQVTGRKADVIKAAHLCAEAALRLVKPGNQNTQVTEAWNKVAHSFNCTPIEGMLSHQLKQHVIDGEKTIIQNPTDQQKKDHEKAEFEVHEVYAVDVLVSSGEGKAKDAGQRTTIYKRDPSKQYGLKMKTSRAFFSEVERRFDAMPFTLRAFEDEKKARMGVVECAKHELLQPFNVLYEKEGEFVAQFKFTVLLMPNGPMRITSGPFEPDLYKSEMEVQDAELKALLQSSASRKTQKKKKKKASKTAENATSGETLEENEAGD
Chain of Serine/threonine-protein kinase PLK4 (Homo sapiens) (O00444 whole entry, canonical isoform): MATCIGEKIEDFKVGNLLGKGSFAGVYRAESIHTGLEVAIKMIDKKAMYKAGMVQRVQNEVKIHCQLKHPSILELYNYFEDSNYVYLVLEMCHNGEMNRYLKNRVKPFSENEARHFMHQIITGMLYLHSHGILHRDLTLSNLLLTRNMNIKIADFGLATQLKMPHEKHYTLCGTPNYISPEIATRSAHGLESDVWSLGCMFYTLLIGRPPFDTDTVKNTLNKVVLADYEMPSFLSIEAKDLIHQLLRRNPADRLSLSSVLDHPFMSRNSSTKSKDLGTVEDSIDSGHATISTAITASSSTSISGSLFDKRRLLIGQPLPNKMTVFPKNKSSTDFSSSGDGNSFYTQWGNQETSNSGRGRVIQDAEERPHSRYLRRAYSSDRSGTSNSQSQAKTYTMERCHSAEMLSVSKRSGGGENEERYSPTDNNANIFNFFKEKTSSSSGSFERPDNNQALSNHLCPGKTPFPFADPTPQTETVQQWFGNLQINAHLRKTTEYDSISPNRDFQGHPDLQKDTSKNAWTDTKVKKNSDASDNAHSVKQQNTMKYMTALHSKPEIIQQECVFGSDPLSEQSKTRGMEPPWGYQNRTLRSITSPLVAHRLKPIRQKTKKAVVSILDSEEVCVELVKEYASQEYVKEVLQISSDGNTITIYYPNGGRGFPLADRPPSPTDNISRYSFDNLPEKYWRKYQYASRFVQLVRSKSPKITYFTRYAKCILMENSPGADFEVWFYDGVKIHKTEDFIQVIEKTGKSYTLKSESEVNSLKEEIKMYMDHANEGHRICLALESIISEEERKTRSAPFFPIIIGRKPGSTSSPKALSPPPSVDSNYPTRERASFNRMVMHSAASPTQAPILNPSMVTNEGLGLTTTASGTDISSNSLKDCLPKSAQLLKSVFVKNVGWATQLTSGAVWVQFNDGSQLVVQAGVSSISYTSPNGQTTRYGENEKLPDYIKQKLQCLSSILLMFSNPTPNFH
Chain of Nuclear pore complex protein Nup155 (Homo sapiens) (O75694 whole entry, one chain of several): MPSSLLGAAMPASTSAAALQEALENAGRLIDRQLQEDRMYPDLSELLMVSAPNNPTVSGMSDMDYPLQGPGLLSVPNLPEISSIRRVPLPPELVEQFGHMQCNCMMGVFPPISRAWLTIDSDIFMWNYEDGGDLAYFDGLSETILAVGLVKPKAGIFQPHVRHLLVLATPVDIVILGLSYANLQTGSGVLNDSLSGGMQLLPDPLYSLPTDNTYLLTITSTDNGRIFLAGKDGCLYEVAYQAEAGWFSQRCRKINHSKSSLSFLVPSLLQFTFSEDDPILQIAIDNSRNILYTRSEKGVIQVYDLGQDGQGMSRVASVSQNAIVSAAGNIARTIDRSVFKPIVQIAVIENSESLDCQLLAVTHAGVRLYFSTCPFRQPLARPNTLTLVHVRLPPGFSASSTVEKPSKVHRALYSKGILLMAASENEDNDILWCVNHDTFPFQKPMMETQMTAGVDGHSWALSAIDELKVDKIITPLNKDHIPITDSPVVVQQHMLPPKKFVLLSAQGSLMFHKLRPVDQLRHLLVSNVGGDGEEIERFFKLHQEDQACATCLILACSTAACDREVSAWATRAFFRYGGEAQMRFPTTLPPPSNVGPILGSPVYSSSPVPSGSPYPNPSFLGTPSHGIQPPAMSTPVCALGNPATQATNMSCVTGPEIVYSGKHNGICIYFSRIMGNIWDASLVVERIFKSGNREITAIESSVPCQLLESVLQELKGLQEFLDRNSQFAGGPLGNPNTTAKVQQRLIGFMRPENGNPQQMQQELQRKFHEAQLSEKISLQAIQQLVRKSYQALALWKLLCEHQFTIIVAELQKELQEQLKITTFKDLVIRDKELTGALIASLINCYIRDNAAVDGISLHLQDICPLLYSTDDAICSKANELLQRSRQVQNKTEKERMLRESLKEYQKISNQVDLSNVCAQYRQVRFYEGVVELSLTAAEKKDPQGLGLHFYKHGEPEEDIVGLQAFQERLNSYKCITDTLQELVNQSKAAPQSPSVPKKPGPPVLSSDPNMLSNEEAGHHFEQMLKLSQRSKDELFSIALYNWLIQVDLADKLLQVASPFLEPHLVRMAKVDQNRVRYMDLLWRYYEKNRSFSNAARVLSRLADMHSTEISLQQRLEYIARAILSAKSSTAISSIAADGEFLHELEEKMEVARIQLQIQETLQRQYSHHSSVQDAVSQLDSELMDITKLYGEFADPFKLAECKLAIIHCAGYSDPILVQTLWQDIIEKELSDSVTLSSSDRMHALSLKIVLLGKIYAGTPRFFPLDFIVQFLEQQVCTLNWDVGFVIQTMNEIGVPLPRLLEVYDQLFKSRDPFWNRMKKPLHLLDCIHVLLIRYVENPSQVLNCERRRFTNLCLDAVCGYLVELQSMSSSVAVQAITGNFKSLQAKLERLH
Chain of Ubiquitin-associated protein 2 (Homo sapiens) (Q5T6F2 whole entry): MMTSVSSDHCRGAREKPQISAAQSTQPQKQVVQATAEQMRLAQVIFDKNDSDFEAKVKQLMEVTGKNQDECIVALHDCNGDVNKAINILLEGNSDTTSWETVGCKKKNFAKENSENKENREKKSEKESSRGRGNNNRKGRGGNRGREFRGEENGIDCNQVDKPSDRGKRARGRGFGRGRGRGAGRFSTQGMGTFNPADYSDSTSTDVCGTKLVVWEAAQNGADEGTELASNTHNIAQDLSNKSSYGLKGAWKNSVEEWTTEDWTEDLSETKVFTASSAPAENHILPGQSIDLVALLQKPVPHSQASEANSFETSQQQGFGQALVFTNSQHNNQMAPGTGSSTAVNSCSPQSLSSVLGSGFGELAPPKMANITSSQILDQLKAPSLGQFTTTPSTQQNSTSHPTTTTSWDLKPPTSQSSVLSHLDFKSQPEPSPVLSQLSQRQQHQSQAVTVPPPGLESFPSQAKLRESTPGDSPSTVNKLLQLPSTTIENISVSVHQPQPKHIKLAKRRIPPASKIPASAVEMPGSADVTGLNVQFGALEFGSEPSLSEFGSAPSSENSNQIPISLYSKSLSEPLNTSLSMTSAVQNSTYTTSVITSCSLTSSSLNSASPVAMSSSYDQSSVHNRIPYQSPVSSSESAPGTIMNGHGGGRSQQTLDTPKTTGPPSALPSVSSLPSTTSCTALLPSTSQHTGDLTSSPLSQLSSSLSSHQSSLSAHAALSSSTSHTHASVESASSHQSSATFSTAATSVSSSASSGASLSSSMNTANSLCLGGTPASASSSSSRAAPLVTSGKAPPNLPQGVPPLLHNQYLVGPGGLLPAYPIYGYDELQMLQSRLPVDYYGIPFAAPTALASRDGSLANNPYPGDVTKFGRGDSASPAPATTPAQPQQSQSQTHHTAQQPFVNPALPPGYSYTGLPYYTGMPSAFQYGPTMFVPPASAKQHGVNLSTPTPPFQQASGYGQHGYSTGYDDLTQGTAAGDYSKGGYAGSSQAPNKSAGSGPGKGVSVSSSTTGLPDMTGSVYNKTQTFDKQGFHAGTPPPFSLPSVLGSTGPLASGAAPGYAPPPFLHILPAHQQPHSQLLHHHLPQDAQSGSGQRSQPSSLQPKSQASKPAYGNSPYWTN
Chain of Conserved oligomeric Golgi complex subunit 8 (Homo sapiens) (Q96MW5 whole entry, one chain of several): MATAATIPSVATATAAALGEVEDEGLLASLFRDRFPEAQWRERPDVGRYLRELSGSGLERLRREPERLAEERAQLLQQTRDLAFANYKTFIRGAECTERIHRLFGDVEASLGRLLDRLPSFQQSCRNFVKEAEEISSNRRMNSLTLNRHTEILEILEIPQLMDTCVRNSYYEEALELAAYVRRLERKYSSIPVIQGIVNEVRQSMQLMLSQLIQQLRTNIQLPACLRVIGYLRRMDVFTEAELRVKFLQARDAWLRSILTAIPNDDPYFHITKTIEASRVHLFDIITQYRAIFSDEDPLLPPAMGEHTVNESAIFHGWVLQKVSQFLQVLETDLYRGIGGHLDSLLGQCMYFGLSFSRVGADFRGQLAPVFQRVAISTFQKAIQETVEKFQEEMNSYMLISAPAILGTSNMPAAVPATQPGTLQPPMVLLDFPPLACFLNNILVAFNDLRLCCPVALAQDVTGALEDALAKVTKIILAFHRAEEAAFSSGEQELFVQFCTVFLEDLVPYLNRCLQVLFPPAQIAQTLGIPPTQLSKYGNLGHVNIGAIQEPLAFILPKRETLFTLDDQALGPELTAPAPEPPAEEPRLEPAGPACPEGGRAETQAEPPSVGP
Chain of Deoxycytidine kinase (Homo sapiens) (P27707 whole entry, looked up): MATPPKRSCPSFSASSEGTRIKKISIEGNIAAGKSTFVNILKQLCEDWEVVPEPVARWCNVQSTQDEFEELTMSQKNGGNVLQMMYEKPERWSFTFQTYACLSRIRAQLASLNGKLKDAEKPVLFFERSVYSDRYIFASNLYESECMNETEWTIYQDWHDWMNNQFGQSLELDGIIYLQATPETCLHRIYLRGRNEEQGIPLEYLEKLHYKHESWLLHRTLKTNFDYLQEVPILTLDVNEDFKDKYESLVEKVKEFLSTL
Chain of Translocator protein (Homo sapiens) (P30536 whole entry): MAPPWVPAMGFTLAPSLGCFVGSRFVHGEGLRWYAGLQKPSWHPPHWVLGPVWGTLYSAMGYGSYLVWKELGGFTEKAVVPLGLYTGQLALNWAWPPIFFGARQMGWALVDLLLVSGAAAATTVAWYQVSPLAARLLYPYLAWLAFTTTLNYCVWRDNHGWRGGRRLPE

Cc1ccc(C(=O)Nc2cccc(C(F)(F)F)c2)cc1Nc1nc(-c2cccnc2)nc2nn(C)cc12
ED50 [1]: 2.04 µM | ED50 [2]: 0.0077 µM | ED50 [3]: 72.9 µM | ED50 [4]: 2.31 µM | ED50 [5]: 2.78 µM | ED50 [6]: 0.0291 µM | ED50 [7]: 0.0985 µM | ED50 [8]: 0.435 µM | ED50 [9]: 0.0144 µM | ED50 [10]: 0.0561 µM | ED50 [11]: 0.819 µM | ED50 [12]: 0.00309 µM | ED50 [13]: 0.459 µM | ED50 [14]: 2.28 µM | ED50 [15]: 0.514 µM | ED50 [16]: 0.0109 µM | ED50 [17]: 3.28 µM | ED50 [18]: 1.72 µM | ED50 [19]: 0.0533 µM | ED50 [20]: 154 µM | ED50 [21]: 0.193 µM | ED50 [22]: 1.17 µM | ED50 [23]: 0.365 µM | ED50 [24]: 1.13 µM | ED50 [25]: 4.34 µM | ED50 [26]: 0.377 µM | ED50 [27]: 0.0408 µM | ED50 [28]: 14.9 µM | ED50 [29]: 22.5 µM | ED50 [30]: 14.9 µM | ED50 (Homo sapiens): 0.0301 µM | ED50 [31]: 0.0513 µM | ED50 [32]: 3.63 µM | ED50 [33]: 0.000236 µM | ED50 [34]: 3.03 µM | ED50 [35]: 0.12 µM | ED50 [36]: 0.0151 µM | ED50 [37]: 0.0289 µM | ED50 [38]: 2.05 µM | ED50 [39]: 0.064 µM | ED50 [40]: 0.0625 µM | ED50 [41]: 5310 µM | ED50 [42]: 0.0238 µM | ED50 [43]: 0.00118 µM | ED50 [44]: 4.5 µM | ED50 [45]: 0.049 µM

Cc1ccc(C(=O)Nc2cccc(C(F)(F)F)c2)cc1Nc1nc(-c2cccnc2)nc2c1cnn2C
ED50 [1]: 1.06 µM | ED50 [2]: 0.00467 µM | ED50 [3]: 0.0377 µM | ED50 [4]: 0.882 µM | ED50 [5]: 2.34 µM | ED50 [6]: 111 µM | ED50 [7]: 9.84 µM | ED50 [8]: 0.00103 µM | ED50 [9]: 0.0271 µM | ED50 [10]: 0.671 µM | ED50 [11]: 0.00417 µM | ED50 [12]: 5 µM | ED50 [13]: 0.148 µM | ED50 [14]: 1.96 µM | ED50 [15]: 74.6 µM | ED50 [16]: 11 µM | ED50 [17]: 0.112 µM | ED50 [18]: 32.9 µM | ED50 [19]: 0.0198 µM | ED50 [20]: 7.18 µM | ED50 [21]: 0.537 µM | ED50 [22]: 2.26 µM | ED50 [23]: 162 µM | ED50 [24]: 1.71 µM | ED50 [25]: 0.174 µM | ED50 [26]: 3.68 µM | ED50 [27]: 57.4 µM | ED50 [28]: 3.14 µM | ED50 [29]: 4.04 µM | ED50 [30]: 0.00259 µM | ED50 (Homo sapiens): 17.4 µM | ED50 [31]: 3.63 µM | ED50 [32]: 0.371 µM | ED50 [33]: 10.7 µM | ED50 [34]: 0.00337 µM | ED50 [35]: 0.08 µM | ED50 [36]: 0.017 µM | ED50 [37]: 0.0311 µM | ED50 [38]: 8.4 µM | ED50 [39]: 18.8 µM | ED50 [40]: 0.183 µM | ED50 [41]: 3.39 µM | ED50 [42]: 0.103 µM | ED50 [43]: 4370 µM | ED50 [44]: 111 µM | ED50 [45]: 0.00616 µM
